US10752624B2, “Kinase inhibitors” (Origenis GmbH, priority 2012, dated 2020)

Molecular target: LRRK2 (Homo sapiens, UniProt Q5S007)
Experiment: LRRK2-LRRK2 G2019S-Assay (LanthaScreen Eu Kinase Binding Assay)
Conditions: 5 nM LRRK2, 10 nM tracer 236, 2 nM EU-Anti-GST antibody, 1 h at RT; read-out: LRRK2 Activities: IC50
Procedure, shortened: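 Compound competition with Alexa Fluor 647 tracer 236 (10 nM) was measured after 1 h at room temperature, using 5 nM LRRK2 (wild type or mutant) bound to 2 nM Eu-anti-GST antibody. IC50 was derived from the acceptor/donor (665/615 nm) ratio using a variable-slope dose-response fit.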

LRRK2, sequence (Q5S007 970-2527 limits assumed): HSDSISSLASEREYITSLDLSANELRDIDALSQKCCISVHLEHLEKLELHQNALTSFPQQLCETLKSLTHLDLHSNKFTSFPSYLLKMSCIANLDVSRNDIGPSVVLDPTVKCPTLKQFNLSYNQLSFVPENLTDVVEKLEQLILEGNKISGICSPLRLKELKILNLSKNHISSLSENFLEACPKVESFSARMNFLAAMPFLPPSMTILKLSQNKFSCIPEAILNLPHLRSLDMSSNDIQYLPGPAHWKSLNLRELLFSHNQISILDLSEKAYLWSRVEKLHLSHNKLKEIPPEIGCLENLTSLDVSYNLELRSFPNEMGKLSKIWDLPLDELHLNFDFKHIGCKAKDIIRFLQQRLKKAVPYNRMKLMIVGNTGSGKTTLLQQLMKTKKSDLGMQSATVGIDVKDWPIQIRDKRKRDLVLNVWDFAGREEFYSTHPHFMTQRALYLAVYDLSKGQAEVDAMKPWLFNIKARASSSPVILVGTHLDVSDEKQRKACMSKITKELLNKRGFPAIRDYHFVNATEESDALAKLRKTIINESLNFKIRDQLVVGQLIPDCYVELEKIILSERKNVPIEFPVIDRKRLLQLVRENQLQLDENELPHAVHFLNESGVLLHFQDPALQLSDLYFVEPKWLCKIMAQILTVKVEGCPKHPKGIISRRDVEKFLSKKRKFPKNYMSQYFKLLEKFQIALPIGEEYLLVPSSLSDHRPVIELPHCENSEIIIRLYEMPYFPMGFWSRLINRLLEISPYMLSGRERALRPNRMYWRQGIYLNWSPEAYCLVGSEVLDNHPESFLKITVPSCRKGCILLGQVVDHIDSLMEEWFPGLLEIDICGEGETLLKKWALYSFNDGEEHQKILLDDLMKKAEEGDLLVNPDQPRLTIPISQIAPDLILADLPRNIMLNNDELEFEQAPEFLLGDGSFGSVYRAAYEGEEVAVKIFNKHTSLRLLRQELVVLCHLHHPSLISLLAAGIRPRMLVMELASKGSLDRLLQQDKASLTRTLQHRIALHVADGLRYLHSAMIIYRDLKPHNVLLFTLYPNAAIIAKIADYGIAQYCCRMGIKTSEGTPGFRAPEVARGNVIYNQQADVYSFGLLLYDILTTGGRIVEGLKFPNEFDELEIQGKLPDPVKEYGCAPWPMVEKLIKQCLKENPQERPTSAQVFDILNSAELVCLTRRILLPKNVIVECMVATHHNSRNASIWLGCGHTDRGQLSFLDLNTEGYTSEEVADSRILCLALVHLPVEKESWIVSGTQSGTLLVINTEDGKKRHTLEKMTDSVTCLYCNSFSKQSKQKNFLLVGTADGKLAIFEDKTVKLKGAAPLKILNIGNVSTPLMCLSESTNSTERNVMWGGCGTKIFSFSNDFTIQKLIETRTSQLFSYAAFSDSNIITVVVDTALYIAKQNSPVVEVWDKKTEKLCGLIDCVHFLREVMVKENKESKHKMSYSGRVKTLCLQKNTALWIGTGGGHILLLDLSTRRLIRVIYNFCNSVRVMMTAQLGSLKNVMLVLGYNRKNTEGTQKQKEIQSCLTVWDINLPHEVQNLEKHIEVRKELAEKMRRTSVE

SMILES | IC50 [µM]
COc1cccc2c1nc(Nc1ccc(N3CCOCC3)cc1)c1[nH]ncc12 [Example 304, 6-methoxy-N-(4-morpholinophenyl)-3H-pyrazolo[3,4-c]quinolin-4-amine] | 0.1 to 1
COc1ccc2nc(Nc3cnn(-c4ccccn4)c3)c3n[nH]cc3c2c1 [Example 319, 8-methoxy-N-(1-(pyridin-2-yl)-1H-pyrazol-4-yl)-2H-pyrazolo[3,4-c]quinolin-4-amine] | 0.01 to 0.1
COCCn1cc(Nc2nc3cccc(OC)c3c3c[nH]nc23)cn1 [Example 156, 9-methoxy-N-(1-(2-methoxyethyl)-1H-pyrazol-4-yl)-2H-pyrazolo[3,4-c]quinolin-4-amine] | < 0.01
COc1ccc2nc(Nc3ccc(-c4cnco4)cc3)c3n[nH]cc3c2c1 [Example 37, 8-methoxy-N-(4-(oxazol-5-yl)phenyl)-2H-pyrazolo[3,4-c]quinolin-4-amine] | < 0.01
COc1cccc2nc(Nc3cc(C4CC4)[nH]n3)c3n[nH]cc3c12 [Example 26, N-(5-cyclopropyl-1H-pyrazol-3-yl)-9-methoxy-3H-pyrazolo[3,4-c]quinolin-4-amine] | 0.01 to 0.1
Fc1cc(Nc2nc3cccc(F)c3c3cn[nH]c23)ccc1N1CCOCC1 [Example 2, 9-fluoro-N-(3-fluoro-4-morpholinophenyl)-3H-pyrazolo[3,4-c]quinolin-4-amine] | 0.1 to 1
COc1ccc2nc(Nc3cnn(C(C)(C)C(N)=O)c3)c3n[nH]cc3c2c1 [Example 164, 2-(4-((8-methoxy-2H-pyrazolo[3,4-c]quinolin-4-yl)amino)-1H-pyrazol-1-yl)-2-methylpropanamide] | 0.1 to 1
COc1cc(Nc2nc3cccc(OC)c3c3cn[nH]c23)ccc1N1CCOCC1 [Example 16, 9-methoxy-N-(3-methoxy-4-morpholinophenyl)-3H-pyrazolo[3,4-c]quinolin-4-amine] | 0.01 to 0.1
COc1cccc2nc(Nc3ccc(N4CCOCC4)c(C#N)c3)c3[nH]ncc3c12 [Example 71, 5-((9-methoxy-3H-pyrazolo[3,4-c]quinolin-4-yl)amino)-2-morpholinobenzonitrile] | 0.01 to 0.1
COc1cccc2nc(Nc3cccc(CN(C)C)c3)c3[nH]ncc3c12 [Example 28, N-(3-((dimethylamino)methyl)phenyl)-9-methoxy-3H-pyrazolo[3,4-c]quinolin-4-amine] | 0.1 to 1
COc1cccc2nc(Nc3ccc(N4CCOCC4=O)cc3)c3[nH]ncc3c12 [Example 60, 4-(4-((9-methoxy-3H-pyrazolo[3,4-c]quinolin-4-yl)amino)phenyl)morpholin-3-one] | 0.1 to 1
COc1ccc2nc(Nc3cnn(C(C)c4ccccc4)c3)c3n[nH]cc3c2c1 (stereo not drawn) [Example 320, 8-methoxy-N-(1-(1-phenylethyl)-1H-pyrazol-4-yl)-2H-pyrazolo[3,4-c]quinolin-4-amine] | 0.1 to 1
COc1cccc2nc(Nc3ccc(N4CCOC4=O)cc3)c3n[nH]cc3c12 [Example 40, 3-(4-((9-methoxy-2H-pyrazolo[3,4-c]quinolin-4-yl)amino)phenyl)oxazolidin-2-one] | < 0.01
COc1ccc2nc(Nc3ccc(N4CCOC4=O)cc3)c3n[nH]cc3c2c1 [Example 25, 3-(4-((8-methoxy-2H-pyrazolo[3,4-c]quinolin-4-yl)amino)phenyl)oxazolidin-2-one] | 0.1 to 1
COc1cccc2nc(Nc3ccc(N4CCOCC4)c(F)c3)c3[nH]ncc3c12 [Example 27, N-(3-fluoro-4-morpholinophenyl)-9-methoxy-3H-pyrazolo[3,4-c]quinolin-4-amine] | 0.01 to 0.1
COc1ccc2nc(Nc3cnn(C4CCN(C)CC4)c3)c3n[nH]cc3c2c1 [Example 111, 8-methoxy-N-(1-(1-methylpiperidin-4-yl)-1H-pyrazol-4-yl)-2H-pyrazolo[3,4-c]quinolin-4-amine] | 0.01 to 0.1
CC(=O)N1CCN(c2ccc(Nc3nc4c(F)cccc4c4cn[nH]c34)cc2)CC1 [Example 53, 1-(4-(4-((6-fluoro-3H-pyrazolo[3,4-c]quinolin-4-yl)amino)phenyl)piperazin-1-yl)ethan-1-one] | 0.1 to 1
COc1ccc2nc(Nc3ccc(-c4ncco4)cc3)c3n[nH]cc3c2c1 [Example 36, 8-methoxy-N-(4-(oxazol-2-yl)phenyl)-2H-pyrazolo[3,4-c]quinolin-4-amine] | 0.1 to 1
COc1cccc2nc(Nc3ccc4c(c3)COC4)c3[nH]ncc3c12 [Example 18, N-(1,3-dihydroisobenzofuran-5-yl)-9-methoxy-3H-pyrazolo[3,4-c]quinolin-4-amine] | 0.01 to 0.1
COc1cccc2nc(Nc3ccc4c(c3)S(=O)(=O)CC4)c3[nH]ncc3c12 [Example 19, 6-((9-methoxy-3H-pyrazolo[3,4-c]quinolin-4-yl)amino)-2,3-dihydrobenzo[b]thiophene 1,1-dioxide] | 0.01 to 0.1
COc1ccc2nc(Nc3ccc4c(c3)N(C)C(=O)CO4)c3n[nH]cc3c2c1 [Example 322, 6-((8-methoxy-2H-pyrazolo[3,4-c]quinolin-4-yl)amino)-4-methyl-2H-benzo[b][1,4]oxazin-3(4H)-one] | 0.1 to 1

Other lines, results leading:

IC50 [µM] | SMILES
< 0.01 | CN1CCC(n2cc(Nc3nc4ccc(S(C)(=O)=O)cc4c4cn[nH]c34)cn2)CC1 [Example 154, N-(1-(1-methylpiperidin-4-yl)-1H-pyrazol-4-yl)-8-(methylsulfonyl)-3H-pyrazolo[3,4-c]quinolin-4-amine]
0.01 to 0.1 | CS(=O)(=O)c1ccc2nc(Nc3cc(S(C)(=O)=O)sc3Cl)c3[nH]ncc3c2c1 [Example 230, N-(2-chloro-5-(methylsulfonyl)thiophen-3-yl)-8-(methylsulfonyl)-3H-pyrazolo[3,4-c]quinolin-4-amine]
0.01 to 0.1 | Cc1c(Nc2nc3cc(S(C)(=O)=O)ccc3c3cn[nH]c23)cnn1C(C)C [Example 244, N-(1-isopropyl-5-methyl-1H-pyrazol-4-yl)-7-(methylsulfonyl)-3H-pyrazolo[3,4-c]quinolin-4-amine]
0.01 to 0.1 | COCCn1ncc(Nc2nc3ccc(S(C)(=O)=O)cc3c3cn[nH]c23)c1Br [Example 279, N-(5-bromo-1-(2-methoxyethyl)-1H-pyrazol-4-yl)-8-(methylsulfonyl)-3H-pyrazolo[3,4-c]quinolin-4-amine]
0.01 to 0.1 | COCCn1ncc(Nc2nc3ccc(S(C)(=O)=O)cc3c3cn[nH]c23)c1C(F)(F)F [Example 272, N-(1-(2-methoxyethyl)-5-(trifluoromethyl)-1H-pyrazol-4-yl)-8-(methylsulfonyl)-3H-pyrazolo[3,4-c]quinolin-4-amine]
< 0.01 | Cc1c(Nc2nc3ccc(S(C)(=O)=O)cc3c3cn[nH]c23)cnn1CCF [Example 270, N-(1-(2-fluoroethyl)-5-methyl-1H-pyrazol-4-yl)-8-(methylsulfonyl)-3H-pyrazolo[3,4-c]quinolin-4-amine]
0.1 to 1 | Cc1cccc2nc(Nc3cccc(S(C)(=O)=O)c3)c3[nH]ncc3c12 [Example 88, 9-methyl-N-(3-(methylsulfonyl)phenyl)-3H-pyrazolo[3,4-c]quinolin-4-amine]
0.1 to 1 | CS(=O)(=O)c1cccc2nc(Nc3ccc(C(=O)N4CCOCC4)cc3)c3[nH]ncc3c12 [Example 94, (4-((9-(methylsulfonyl)-3H-pyrazolo[3,4-c]quinolin-4-yl)amino)phenyl)(morpholino)methanone]
0.1 to 1 | CC(C)n1cc(Nc2nc3ccc(S(C)(=O)=O)cc3c3cn[nH]c23)c(C(N)=O)n1 [Example 250, 1-isopropyl-4-((8-(methylsulfonyl)-3H-pyrazolo[3,4-c]quinolin-4-yl)amino)-1H-pyrazole-3-carboxamide]
0.01 to 0.1 | COCCn1cc(Nc2nc3ccc(S(C)(=O)=O)cc3c3cn[nH]c23)cn1 [Example 113, N-(1-(2-methoxyethyl)-1H-pyrazol-4-yl)-8-(methylsulfonyl)-3H-pyrazolo[3,4-c]quinolin-4-amine]
0.01 to 0.1 | COCCn1ncc(Nc2nc3cc(S(C)(=O)=O)ccc3c3cn[nH]c23)c1Cl [Example 243, N-(5-chloro-1-(2-methoxyethyl)-1H-pyrazol-4-yl)-7-(methylsulfonyl)-3H-pyrazolo[3,4-c]quinolin-4-amine]
0.01 to 0.1 | Cc1nn(C2CCOCC2)cc1Nc1nc2ccc(S(C)(=O)=O)cc2c2cn[nH]c12 [Example 216, N-(3-methyl-1-(tetrahydro-2H-pyran-4-yl)-1H-pyrazol-4-yl)-8-(methylsulfonyl)-3H-pyrazolo[3,4-c]quinolin-4-amine]
< 0.01 | COc1cccc2nc(Nc3cnn(C4CCNCC4)c3Cl)c3[nH]ncc3c12 [Example 254, N-(5-chloro-1-(piperidin-4-yl)-1H-pyrazol-4-yl)-9-methoxy-3H-pyrazolo[3,4-c]quinolin-4-amine]
0.01 to 0.1 | CC(=O)N1CCN(c2ccc(Nc3nc4cccc(S(C)(=O)=O)c4c4cn[nH]c34)cc2)CC1 [Example 93, 1-(4-(4-((9-(methylsulfonyl)-3H-pyrazolo[3,4-c]quinolin-4-yl)amino)phenyl)piperazin-1-yl)ethan-1-one]
< 0.01 | CS(=O)(=O)c1ccc2c(c1)nc(Nc1cnn(C3CCOCC3)c1)c1[nH]ncc12 [Example 160, 7-(methylsulfonyl)-N-(1-(tetrahydro-2H-pyran-4-yl)-1H-pyrazol-4-yl)-3H-pyrazolo[3,4-c]quinolin-4-amine]
0.01 to 0.1 | CSc1ccc2nc(Nc3cccc(S(C)(=O)=O)c3)c3[nH]ncc3c2c1 [Example 44, N-(3-(methylsulfonyl)phenyl)-8-(methylthio)-3H-pyrazolo[3,4-c]quinolin-4-amine]
0.01 to 0.1 | COCCn1ncc(Nc2nc3ccc(S(C)(=O)=O)cc3c3cn[nH]c23)c1C [Example 210, N-(1-(2-methoxyethyl)-5-methyl-1H-pyrazol-4-yl)-8-(methylsulfonyl)-3H-pyrazolo[3,4-c]quinolin-4-amine]
< 0.01 | CS(=O)(=O)c1cccc2nc(Nc3ccc(N4CCOCC4)cc3)c3[nH]ncc3c12 [Example 92, 9-(methylsulfonyl)-N-(4-morpholinophenyl)-3H-pyrazolo[3,4-c]quinolin-4-amine]
